We go through three compounds from US20050107293A1, “Protein modification and maintenance molecules” (priority 2001, published 2005).

The conditions of assay [1]: greater than progesterone; cited from earlier work.
A further assay has as its system liver C3A cells. In words: Microarray analysis of SEQ ID NO:49 expression in steroid-treated C3A cells. In kind it is cell-based, human. The settings on record: for differential expression of SEQ ID NO:49: liver C3A cells treated with one steroid, microarray. An excerpt: The human C3A cell line is a clonal derivative of HepG2/C3 and has been established as an in vitro model of the mature human liver (Mickelson et al. (1995) Hepatology 22:866-875; Nagendra et al. (1997) Am J Physiol 272:G408-G416). […] These experiments indicate that SEQ ID NO:49 is useful in diagnostic assays for liver diseases and as a potential biological marker and therapeutic agent in the treatment of liver diseases and disorders.

The subject of a further assay is C3A cells. In words: Microarray analysis of SEQ ID NO:59 expression in C3A cells treated with progesterone or budenoside. The class given is cell-based, human. The settings on record: early confluent C3A cells, 10 μM, at each time point (1, 3, and 6 hours), versus untreated C3A cells. The source says: The human C3A cell line is a clonal derivative of HepG2/C3 (hepatoma cell line, isolated from a person with liver tumor), which was selected for strong contact inhibition of growth. The use of a clonal population enhances the reproducibility of the cells. C3A cells have many characteristics of primary human hepatocytes in culture: i) expression of insulin receptor and insulin-like growth factor II receptor; ii) secretion of a high ratio of serum albumin compared with α-fetoprotein iii) conversion of ammonia to urea and glutamine; iv) metabolism of aromatic amino acids; and v) proliferation in glucose-free and insulin-free medium. The C3A cell line is now well established as an in vitro model of the mature human liver (Mickelson et al. (1995) Hepatology 22:866-875; Nagendra et al. (1997) Am J Physiol 272:G408-G416). Early Confluent C3A cells were treated with progesterone or budenoside at 1, 10, and 100 μM for 1, 3, and 6 hours. The treated cells were compared to untreated early confluent C3A cells. […] Therefore, SEQ ID NO:59 may be useful in monitoring of, and diagnostic assays for steroid hormone-induced responses.

Take “6α-methyl-17-hydroxyprogesterone [Medroxyprogesterone]”: the “pharmacological activity relative to progesterone” value in assay [1] is on record as “about 15 times”.

In the case of `C[C@H]1C[C@H]2[C@@H]3CCC4=CC(=O)C=C[C@]4(C)[C@@]3(Cl)[C@@H](O)C[C@]2(C)[C@@]1(O)C(=O)CO` [beclomethasone], the “decrease in expression of SEQ ID NO:5” value in the assay on liver C3A cells (early confluent C3A cells treated for 1, 3, or 6 hours, at a minimum of two out of the three time points) was “at least a two-fold decrease”. In addition, the “differential expression of SEQ ID NO:49” value in the assay on liver C3A cells is on record as “differential expression”. Consider `CC(=O)[C@H]1CC[C@H]2[C@@H]3CCC4=CC(=O)CC[C@]4(C)[C@H]3CC[C@]12C` [progesterone], for which the “differential expression of SEQ ID NO:49” value in the assay with liver C3A cells is recorded as “differential expression”. The “expression of SEQ ID NO:59” value in the assay with C3A cells is listed as “decreased by at least two-fold”.
